From patent US7070978B2, “Method for expressing and purifying proteins using budded baculovirus” (Toudai TLO, Ltd., priority 2001, dated 2006)

Target: S1P (Homo sapiens, UniProt Q14703)
Details: 10 mM EDTA; SREBP2-BV + S1P-BV, 5 mM calcium, 37° C. for 12 hours, Western blot with anti-serum R004
Experimental: Sf9 cells were infected with recombinant viruses of S1P or SREBP at MOI 5. 72 hours later, the BV fraction was recovered by centrifugation as in Examples 1 and 2, and then suspended in TBS buffer (10 mM Tris, 150 mM NaCl, pH7.5). BV suspended in TBS was subjected to a protein determination with a protein determination kit (Bio-Rad). Reaction solutions of SREBP2-BV as a substrate and S1P-BV as an enzyme were prepared to have respective final concentrations of 10 μg per reaction solution. In addition, calcium ions required for activation of S1P were added to the reaction solution at a concentration, as calcium acetate, which enables to measure activity. Calcium, EDTA (pH7.4) and EGTA (pH7.4) were added to BV solution, and then added with TBS buffer (pH7.4) to a reaction volume of 20 μl, followed by incubation at 37° C. for 12 hours. Following reaction, the solution was subjected to heat treatment with 5×SDS sample buffer at 95° C. for 10 minutes, subjected to 8% SDS-PAGE and Western blot using rabbit anti-serum R004 against the amino terminal of SREBP2.
BV expressing SREBP or S1P was mixed, incubated at 37° C. for 12 hours, and then allowed to react in the presence of 5 mM calcium.

Chain of S1P (Q14703 187-1052): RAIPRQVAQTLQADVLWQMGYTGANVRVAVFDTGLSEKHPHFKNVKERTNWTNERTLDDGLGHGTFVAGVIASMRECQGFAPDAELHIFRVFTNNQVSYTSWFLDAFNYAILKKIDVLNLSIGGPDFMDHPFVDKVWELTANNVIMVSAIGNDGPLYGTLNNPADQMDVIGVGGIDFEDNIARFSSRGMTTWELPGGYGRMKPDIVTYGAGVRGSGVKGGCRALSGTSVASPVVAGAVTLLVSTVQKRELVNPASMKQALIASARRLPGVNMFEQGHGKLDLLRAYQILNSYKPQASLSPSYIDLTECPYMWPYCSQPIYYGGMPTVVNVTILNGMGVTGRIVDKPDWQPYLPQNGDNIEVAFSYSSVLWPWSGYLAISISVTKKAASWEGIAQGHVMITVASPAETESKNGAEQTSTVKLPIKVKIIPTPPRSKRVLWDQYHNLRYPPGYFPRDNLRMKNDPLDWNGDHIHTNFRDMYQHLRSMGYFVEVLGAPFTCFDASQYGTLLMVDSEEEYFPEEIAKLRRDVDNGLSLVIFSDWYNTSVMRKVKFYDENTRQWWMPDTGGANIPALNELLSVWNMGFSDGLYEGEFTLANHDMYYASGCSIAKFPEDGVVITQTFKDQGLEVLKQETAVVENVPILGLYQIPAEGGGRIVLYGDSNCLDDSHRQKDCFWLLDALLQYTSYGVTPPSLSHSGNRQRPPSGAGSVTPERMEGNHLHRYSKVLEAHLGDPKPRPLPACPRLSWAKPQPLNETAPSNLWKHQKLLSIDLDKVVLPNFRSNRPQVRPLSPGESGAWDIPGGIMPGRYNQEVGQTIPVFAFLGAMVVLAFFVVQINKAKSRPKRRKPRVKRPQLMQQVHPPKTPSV

## O=C(O)CN(CCN(CC(=O)O)CC(=O)O)CC(=O)O [EDTA]
  inhibition of degradation (cleavage) of SREBP2 by S1P: completely inhibited
